According to patent US8518980B2, “Treatment of Duchenne muscular dystrophy” (Summit Corporation PLC, priority 2006, dated 2013):

System: Utrophin A promoter linked to a luciferase reporter gene (H2K/mdx/Utro A reporter cell line)
Test: Luciferase reporter assay (murine H2K cells)
Conditions: Mus musculus, H2K mdx

| SMILES | activity at 10 µM |
| --- | --- |
| CC(C)(C)c1ccc2oc(-c3ccc(N)cc3)nc2c1 [Example 593, 4-(5-Tert-butylbenzo[d]oxazol-2-yl)aniline] | 301 to 400% |
| Oc1cccc(-c2nc3ccccc3s2)c1 [Example 594, 3-(Benzo[d]thiazol-2-yl)phenol] | > 401% |
| Clc1ccc(-c2nc3ccccc3s2)c(Cl)c1 [Example 595, 2-(2,4-Dichlorophenyl)benzo[d]thiazole] | 201 to 300% |
| COc1ccc(-c2nc3ccccc3s2)cc1O [Example 596, 5-(Benzo[d]thiazol-2-yl)-2-methoxyphenol] | > 401% |
| COc1ccc(-c2nc3ccccc3s2)cc1N [Example 597, 5-(Benzo[d]thiazol-2-yl)-2-methoxyaniline] | 301 to 400% |
| Nc1ccc2nc(-c3cccc(Cl)c3)oc2c1 [Example 598, 2-(3-Chlorophenyl)benzo[d]oxazol-6-amine] | 301 to 400% |
| Cc1cc(-c2nc3ccccc3s2)ccc1[N+](=O)[O-] [Example 599, 2-(3-Methyl-4-nitrophenyl)benzo[d]thiazole] | > 401% |
| COc1cccc(-c2nc3ccccc3[nH]2)c1 [Example 600, 2-(3-Methoxyphenyl)-1H-benzo[d]imidazole] | 201 to 300% |
| Nc1ccc(-c2nc3ccccc3s2)cc1 [Example 601, 4-(Benzo[d]thiazol-2-yl)aniline] | 301 to 400% |
| Nc1cccc(-c2nc3ccccc3s2)c1 [Example 602, 3-(Benzo[d]thiazol-2-yl)aniline] | 301 to 400% |
| Cc1ccc(-c2nc3cc(N)ccc3o2)cc1C [Example 603, 2-(3,4-Dimethylphenyl)benzo[d]oxazol-5-amine] | 301 to 400% |
| O=[N+]([O-])c1ccc2nc(-c3ccccc3)[nH]c2c1 [Example 604, 6-Nitro-2-phenyl-1H-benzo[d]imidazole] | 301 to 400% |
| Cc1ccc2[nH]c(-c3ccc([N+](=O)[O-])cc3)nc2c1 [Example 605, 5-Methyl-2-(4-nitrophenyl)-1H-benzo[d]imidazole] | 301 to 400% |
| COc1cccc(-c2nc3ccccc3s2)c1 [Example 606, 2-(3-Methoxyphenyl)benzo[d]thiazole] | 301 to 400% |
| Cc1cc(-c2nc3ccccc3o2)ccc1[N+](=O)[O-] [Example 607, 2-(3-Methyl-4-nitrophenyl)benzo[d]oxazole] | > 401% |
| c1ccc2sc(-c3ccc4c(c3)OCO4)nc2c1 [Example 608, 2-(Benzo[d][1,3]dioxol-5-yl)benzo[d]thiazole] | > 401% |
| CCC(C)c1ccc2oc(-c3ccc(N)cc3)nc2c1 (centres unmarked) [Example 609, 4-(5-Sec-butylbenzo[d]oxazol-2-yl)aniline] | 301 to 400% |
| Cc1cc2nc(-c3ccc(N)cc3O)oc2cc1C [Example 610, 5-Amino-2-(5,6-dimethylbenzo[d]oxazol-2-yl)phenol] | > 401% |
| Cc1ccc2nc(-c3ccc(C(F)(F)F)cc3)oc2c1 [Example 611, 6-Methyl-2-(4-(trifluoromethyl)phenyl)benzo[d]oxazole] | 301 to 400% |
| Cc1ccc2oc(-c3cccs3)nc2c1 [Example 612, 5-Methyl-2-(thiophen-2-yl)benzo[d]oxazole] | 201 to 300% |

| SMILES | activity at 10 µM |
| --- | --- |
| Cc1ccc(-c2nc3ccccc3[nH]2)cc1 [Example 613, 2-p-Tolyl-1H-benzo[d]imidazole] | 301 to 400% |
| O=C(COc1ccc2c(c1)OCO2)Nc1nc2ccccc2s1 [Example 614, 2-(Benzo[d][1,3]dioxol-5-yloxy)-N-(benzo[d]thiazol-2-yl)acetamide] | < 200% |
| CCn1c(C)nc2cc(C(=O)Nc3ccccc3)ccc21 [Example 615, 1-ethyl-2-methyl-N-phenyl-1H-benzo[d]imidazole-5-carboxamide] | > 401% |
| O=C(Nc1nc2ccccc2s1)c1ccccc1Br [Example 616, N-(benzo[d]thiazol-2-yl)-2-bromobenzamide] | > 401% |
| O=C(CSc1nc2ccccc2s1)N1CCCCC1 [Example 617, 2-(benzo[d]thiazol-2-ylthio)-1-(piperidin-1-yl)ethanone] | > 401% |
| O=C(Nc1ccc2c(c1)OCO2)c1sc2ccccc2c1Cl [Example 618, N-(benzo[d][1,3]dioxol-5-yl)-3-chlorobenzo[b]thiophene-2-carboxamide] | > 401% |
| COc1ccc(-c2nc3ccccc3o2)cc1N [Example 619, 5-(benzo[d]oxazol-2-yl)-2-methoxyaniline] | > 401% |
| Cc1ccc(-c2nc3ccccc3[nH]2)cc1N [Example 620, 5-(1H-benzo[d]imidazol-2-yl)-2-methylaniline] | > 401% |
| O=C(Nc1ccccc1F)c1sc2ccccc2c1Cl [Example 621, 3-chloro-N-(2-fluorophenyl)benzo[b]thiophene-2-carboxamide] | > 401% |
| Nc1cccc(-c2nc3cc(Cl)ccc3o2)c1 [Example 622, 3-(5-chlorobenzo[d]oxazol-2-yl)aniline] | > 401% |
| Cc1cc2nc(-c3cccc(NC(=O)c4ccco4)c3)oc2cc1C [Example 623, N-(3-(5,6-dimethylbenzo[d]oxazol-2-yl)phenyl)furan-2-carboxamide] | > 401% |
| CCc1ccc2oc(-c3ccc(C)c(N)c3)nc2c1 [Example 625, 5-(5-ethylbenzo[d]oxazol-2-yl)-2-methylaniline] | > 401% |
| O=C(Nc1nc2ccccc2s1)c1cc2ccccc2o1 [Example 626, N-(benzo[d]thiazol-2-yl)benzofuran-2-carboxamide] | > 401% |
| Cc1cc(C)c2oc(-c3ccc(Cl)c(N)c3)nc2c1 [Example 627, 2-chloro-5-(5,7-dimethylbenzo[d]oxazol-2-yl)aniline] | > 401% |
| Nc1c(C(=O)Nc2ccc(F)cc2)sc2nc3c(cc12)CCC3 [Example 628, 3-amino-N-(4-fluorophenyl)-6,7-dihydro-5H-cyclopenta[e]thieno[2,3-b]pyridine-2-carboxamide] | > 401% |
| O=C(Nc1nc2ccc(F)cc2s1)c1ccccc1Br [Example 629, 2-bromo-N-(6-fluorobenzo[d]thiazol-2-yl)benzamide] | > 401% |
| COc1ccc2oc(-c3cccc(N)c3)nc2c1 [Example 630, 3-(5-methoxybenzo[d]oxazol-2-yl)aniline] | > 401% |
| CCC(C)C(=O)Nc1ccc(-c2nc3ccccc3[nH]2)cc1 (centres unmarked) [Example 631, N-(4-(1H-benzo[d]imidazol-2-yl)phenyl)-2-methylbutanamide] | > 401% |
| Cc1ccc2[nH]c(-c3sc4nc(C)ccc4c3N)nc2c1 [Example 632, 6-methyl-2-(5-methyl-1H-benzo[d]imidazol-2-yl)thieno[2,3-b]pyridin-3-amine] | > 401% |
| c1ccc(OCc2nc3ccccc3s2)cc1 [Example 633, 2-(phenoxymethyl)benzo[d]thiazole] | 301 to 400% |

| SMILES | activity at 10 µM |
| --- | --- |
| CCn1c(C)nc2cc(-c3ccccc3)ccc21 [Example 634, 1-ethyl-2-methyl-5-phenyl-1H-benzo[d]imidazole] | 301 to 400% |
| Cc1ccc2nc(-c3ccc(C)c(N)c3)oc2c1 [Example 635, 2-methyl-5-(6-methylbenzo[d]oxazol-2-yl)aniline] | 301 to 400% |
| Cc1ccc2oc(-c3ccc(Cl)c(N)c3)nc2c1 [Example 636, 2-chloro-5-(5-methylbenzo[d]oxazol-2-yl)aniline] | 301 to 400% |
| Cc1ccc(NC(=O)Nc2nc3ccccc3s2)cc1 [Example 637, 1-(benzo[d]thiazol-2-yl)-3-p-tolylurea] | 301 to 400% |
| Cc1ccc2nc(-c3ccc(NC(=O)c4cccnc4)cc3)sc2c1 [Example 638, N-(4-(6-methylbenzo[d]thiazol-2-yl)phenyl)nicotinamide] | 301 to 400% |
| c1ccc2nc(-c3nc4ccccc4s3)ccc2c1 [Example 639, 2-(quinolin-2-yl)benzo[d]thiazole] | 301 to 400% |
| COc1ccc(CSc2nc3ccccc3[nH]2)cc1 [Example 640, 2-(4-methoxybenzylthio)-1H-benzo[d]imidazole] | 301 to 400% |
| O=C(Nc1ccc(-c2nc3ncccc3o2)cc1)c1ccccc1Cl [Example 641, 2-chloro-N-(4-(oxazolo[4,5-b]pyridin-2-yl)phenyl)benzamide] | 301 to 400% |
| CCc1ccc2oc(-c3cccc(NC(C)=O)c3)nc2c1 [Example 642, N-(3-(5-ethylbenzo[d]oxazol-2-yl)phenyl)acetamide] | 301 to 400% |
| Cc1ccc2nc(-c3ccc(O)cc3)sc2c1 [Example 643, 4-(6-methylbenzo[d]thiazol-2-yl)phenol] | 301 to 400% |
| CCC(=O)Nc1cccc(-c2nc3cc(C)ccc3o2)c1 [Example 644, N-(3-(5-methylbenzo[d]oxazol-2-yl)phenyl)propionamide] | 301 to 400% |
| COc1ccc(CSc2nc3ccccc3n2C)cc1F [Example 645, 2-(3-fluoro-4-methoxybenzylthio)-1-methyl-1H-benzo[d]imidazole] | 301 to 400% |
| Cc1cc2nc(-c3cc(N)ccc3Cl)oc2cc1C [Example 646, 4-chloro-3-(5,6-dimethylbenzo[d]oxazol-2-yl)aniline] | 301 to 400% |
| c1cc(NCc2ccncc2)cc(-c2nc3ccccc3s2)c1 [Example 647, 3-(benzo[d]thiazol-2-yl)-N-(pyridin-4-ylmethyl)aniline] | 301 to 400% |
| Cc1ccccc1C(=O)Nc1nc2ccccc2[nH]1 [Example 648, N-(1H-benzo[d]imidazol-2-yl)-2-methylbenzamide] | 301 to 400% |
| Cc1cc(-c2nc3cc(N)ccc3o2)ccc1Br [Example 649, 2-(4-bromo-3-methylphenyl)benzo[d]oxazol-5-amine] | 301 to 400% |
| Cc1cccc(NC(=O)c2sc3nc(C)cc(C)c3c2N)c1 [Example 650, 3-amino-4,6-dimethyl-N-m-tolylthieno[2,3-b]pyridine-2-carboxamide] | 301 to 400% |
| CC(C)C(=O)Nc1ccc(-c2nc3ccccc3s2)cc1 [Example 651, N-(4-(benzo[d]thiazol-2-yl)phenyl)isobutyramide] | 301 to 400% |
| Cc1ccc2nc(NC(=O)c3ccco3)sc2c1 [Example 652, N-(6-methylbenzo[d]thiazol-2-yl)furan-2-carboxamide] | 301 to 400% |
